Measured values from the supplement of paper PMC10307832.

Key:
Assay in all cases: relative viability (nuclei count vs DMSO), 5 days (fraction); higher = more cells survive
Erlotinib + Tozasertib = compound: C#Cc1cccc(Nc2ncnc3cc(OCCOC)c(OCCOC)cc23)c1 [Erlotinib] + Cc1cc(Nc2cc(N3CCN(C)CC3)nc(Sc3ccc(NC(=O)C4CC4)cc3)n2)n[nH]1 [Tozasertib] (partner 0.1 µM)
Method in brief: (§1)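 Relative viability divides the nuclei count in treated wells by that in vehicle wells. Lung cancer cell lines were seeded in 1536-well plates, dosed by pin tool the next day, and fixed and stained after 5 days in one step with final 0.05% Triton X-100, 1% formaldehyde and 1 ug/ml Hoechst. Dosing was a single drug or a fixed anchor-drug dose plus five library-drug doses (not always all listed) in √10 steps, and values are medians of duplicate plates imaged at 4×.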

Erlotinib + Phenformin = compound: C#Cc1cccc(Nc2ncnc3cc(OCCOC)c(OCCOC)cc23)c1 [Erlotinib] + N=C(N)NC(=N)NCCc1ccccc1 [Phenformin] (partner 250 µM)
Method in brief: as §1

AT9283 + Crizotinib = compound: O=C(Nc1c[nH]nc1-c1nc2ccc(CN3CCOCC3)cc2[nH]1)NC1CC1 [AT9283] + C[C@@H](Oc1cc(-c2cnn(C3CCNCC3)c2)cnc1N)c1c(Cl)ccc(F)c1Cl [Crizotinib] (partner 1 µM)
Method in brief: as §1

AT9283 + Tozasertib = compound: O=C(Nc1c[nH]nc1-c1nc2ccc(CN3CCOCC3)cc2[nH]1)NC1CC1 [AT9283] + Cc1cc(Nc2cc(N3CCN(C)CC3)nc(Sc3ccc(NC(=O)C4CC4)cc3)n2)n[nH]1 [Tozasertib] (partner 0.1 µM)
Method in brief: as §1

AT9283 + Pemetrexed = compound: O=C(Nc1c[nH]nc1-c1nc2ccc(CN3CCOCC3)cc2[nH]1)NC1CC1 [AT9283] + Nc1nc2[nH]cc(CCc3ccc(C(=O)N[C@@H](CCC(=O)O)C(=O)O)cc3)c2c(=O)[nH]1 [Pemetrexed] (partner 0.2 µM)
Method in brief: as §1

Cell Line | relative viability (Erlotinib + Tozasertib; first compound 0.02 µM) | relative viability (Erlotinib + Tozasertib; first compound 0.2 µM) | relative viability (Erlotinib + Tozasertib; first compound 0.6325 µM) | relative viability (Erlotinib + Tozasertib; first compound 2 µM) | relative viability (Erlotinib + Phenformin; first compound 0.02 µM) | relative viability (Erlotinib + Phenformin; first compound 0.6325 µM) | relative viability (Erlotinib + Phenformin; first compound 2 µM) | relative viability (AT9283 + Crizotinib; first compound 0.003 µM) | relative viability (AT9283 + Crizotinib; first compound 0.03 µM) | relative viability (AT9283 + Crizotinib; first compound 0.09487 µM) | relative viability (AT9283 + Crizotinib; first compound 0.3 µM) | relative viability (AT9283 + Tozasertib; first compound 0.003 µM) | relative viability (AT9283 + Tozasertib; first compound 0.03 µM) | relative viability (AT9283 + Tozasertib; first compound 0.09487 µM) | relative viability (AT9283 + Tozasertib; first compound 0.3 µM) | relative viability (AT9283 + Pemetrexed; first compound 0.003 µM) | relative viability (AT9283 + Pemetrexed; first compound 0.03 µM) | relative viability (AT9283 + Pemetrexed; first compound 0.09487 µM) | relative viability (AT9283 + Pemetrexed; first compound 0.3 µM) | relative viability (Erlotinib + Phenformin; first compound 0.2 µM)
NCI-H2347 | 0.58 | 0.49 | 0.52 | 0.535 | 0.511 | 0.326 | 0.326 | 0.717 | 0.78 | 0.446 | 0.363 | 0.517 | 0.456 | 0.336 | 0.326 | 0.419 | 0.417 | 0.376 | 0.338 | –
NCI-H2405 | 0.765 | 0.722 | 0.686 | 0.565 | 0.449 | 0.401 | 0.404 | 0.826 | 0.634 | 0.272 | 0.217 | 0.689 | 0.418 | 0.272 | 0.261 | 0.995 | 0.977 | 0.324 | 0.22 | 0.347
NCI-H3122 | 0.489 | 0.444 | 0.44 | 0.297 | 0.361 | 0.392 | 0.377 | 0.291 | 0.259 | 0.216 | 0.214 | 0.338 | 0.348 | 0.319 | 0.113 | 0.2 | 0.191 | 0.176 | 0.123 | 0.388
PC-3 [JPC-3] | 0.825 | 0.355 | 0.331 | 0.274 | 0.445 | 0.268 | 0.291 | 0.929 | 0.832 | 0.608 | 0.509 | 0.924 | 0.814 | 0.492 | 0.58 | 0.966 | 1.06 | 0.717 | 0.568 | 0.367
PC-14 | 0.435 | 0.148 | 0.159 | 0.103 | 0.278 | 0.177 | 0.139 | 0.959 | 0.731 | 0.559 | 0.159 | 0.504 | 0.387 | 0.0959 | 0.0742 | 0.145 | 0.0954 | 0.0681 | 0.0563 | 0.171
RERF-LC-KJ | 0.55 | 0.53 | 0.44 | 0.381 | 0.393 | 0.311 | 0.337 | 0.788 | 0.526 | 0.293 | 0.23 | 0.42 | 0.242 | 0.203 | 0.247 | 0.465 | 0.36 | 0.253 | 0.225 | 0.372
SK-LU-1 | 0.336 | 0.352 | 0.332 | 0.267 | 0.621 | 0.573 | 0.479 | 0.922 | 0.519 | 0.295 | 0.305 | 0.359 | 0.301 | 0.253 | 0.267 | 1.16 | 0.663 | 0.396 | 0.391 | 0.536
SK-MES-1 | 0.925 | 0.929 | 0.648 | 0.536 | 0.705 | 0.385 | 0.368 | 1.02 | 0.883 | 0.84 | 0.256 | 1 | 0.679 | 0.254 | 0.125 | 1.07 | 0.843 | 0.429 | 0.218 | 0.599
SW 1573 | 0.183 | 0.197 | 0.156 | 0.226 | 0.377 | 0.312 | 0.372 | 0.698 | 0.376 | 0.219 | 0.157 | 0.204 | 0.192 | 0.211 | 0.112 | 0.813 | 0.302 | 0.182 | 0.121 | 0.412
UMC-11 | 0.208 | 0.189 | 0.204 | 0.198 | 0.334 | 0.301 | 0.287 | 0.58 | 0.075 | 0.0835 | 0.132 | 0.19 | 0.221 | 0.207 | 0.21 | 0.768 | 0.158 | 0.196 | 0.193 | 0.281
